Source: patent publication US20120093947A1, “METHOD OF TREATING REACTIVE AIRWAY DISEASE” (UNITED STATES DEPARTMENT OF VETERANS AFFAIRS, priority 2009, published 2012)
Where two headings read alike, the source gives them in different places.

Assays:
[1] = molecular target: T1, MPO (Homo sapiens, UniProt P05164); test: EPR of MNP adducts with radicals from β2-agonists generated by MPO/H2O2; type: biochemical; parameters: Myeloperoxidase (MPO) from human leucocytes (lyophilized powder); purchased Axxora, LLC (San Diego, Calif.); host or cells: human leucocytes (natural source)
Method: Formation of free radicals from β2-agonists is studied in samples prepared in 100 mM phosphate buffer (pH 7.0 and 8.0)/DTPA (0.2 mM) (total volume 250 μL) containing MNP, MPO (or LPO) and the agonists. The reaction is initiated by the addition of H2O2 as the last component. In experiments in which H2O2 was generated using glucose (1 mM) and glucose oxidase (3.9 μg/mL), glucose oxidase is added as a last component. The sample is transferred to a flat aqueous EPR cell and recording is started 1 minute after initiation of the reaction. Typically, spectra of MNP adducts are recorded using microwave power 20 mW, modulation amplitude 0.1 mT, receiver gain 2×10^5, conversion time 40.96 ms, time constant 81.92 ms, and scan rate of 10 mT/41.92 s. EPR spectra constitute an average of 5 scans and represent results of typical experiments. Unless stated otherwise, direct EPR measurements (spin traps omitted) of free radicals derived from β2-agonists are performed using conditions similar to those for the detection of MNP adducts. EPR spectra are simulated using WINSIM software developed at NIEHS/NIH (RTP, NC).
The effect of methimazole and dapsone on the formation of free radicals from drugs is studied in phosphate buffers (pH 7.0 and 8.0) containing DTPA (0.2 mM) and MNP (10 mM in dimers). Oxidation is carried out by MPO (0.43 units/mL)/H2O2 (37 μM) and LPO (0.39 μM)/glucose (1 mM)/glucose oxidase (0.8 μg/mL). […]
Table 3, below, summarizes the effects of dapsone and methimazole on EPR spectra of MNP adducts with radicals from fenoterol and terbutaline generated by MPO/H2O2 and LPO/H2O2 systems at a pH of 8.0. Concentrations of MNP spin adducts were calculated as second integrals of the low-field component of the respective spectra and are expressed as % of control samples (no additives). Results equal the means±SE of at least two measurements.
. […] This is consistent with the known inhibitory action of both methimazole and dapsone on LPO activity and only methimazole on MPO activity. Thomas et al. (1994) J. Dent. Res. 73(2):544-55. Results obtained at pH 7.0 qualitatively agree with those at pH 8.0.

[2] = molecular target: T1, MPO; test: Nitration of salbutamol by MPO/H2O2/NO2−, A410; type: biochemical; parameters: Myeloperoxidase (MPO) from human leucocytes (lyophilized powder); purchased Axxora, LLC (San Diego, Calif.); host or cells: human leucocytes (natural source); conditions: 50 μM salbutamol; for Nitrophenols, (%) MPO: 5.0 mM NaNO2, 5 mM H2O2, 0.2 U/mL MPO, pH 7.0, 30 min, ΔA410 versus control
Method: Spectrophotometric Measurements. Spectra are measured using an Agilent diode array spectrophotometer model 8453 (Agilent Technologies, Inc., Santa Clara, Calif.). Nitration of salbutamol is studied by measuring absorption spectra at designated time points following the start of the reaction. Samples are prepared in 100 mM phosphate buffers (pH 7.0). All buffers contained DTPA (100 μM) or are pretreated with Chelex-100 before use, and measurements are performed at ambient temperature of 20° C. Typically, the reaction is started by the addition of a small aliquot of H2O2 or the desired peroxidase. Time course measurements are carried out following changes in absorbance at 410 nm in 30 second intervals versus absorbance at 800 nm, where none of the compounds absorb.
We also examine the effect of methimazole on nitration catalyzed by MPO and EPO. 50 μM of salbutamol is reacted with 0.2 U/mL MPO, 5 mM NaNO2, and 2.1 mM H2O2 at pH buffer 7.0 in the presence of 0, 25, 50, and 100 μM methimazole (shown in FIG. 9, section B, traces a-d, respectively). In contrast to inhibition of nitration by LPO system, which was irreversible, inhibitory action of methimazole on MPO/H2O2/NO2^− is transitory.
The extent of nitration is expressed as a change in ΔA410 versus control (dapsone omitted) taken as 100% after 10, 30, and 60 minute reactions for LPO, MPO, and EPO nitrating systems, respectively. Results equal the means±SE of at least two measurements. In the LPO system, 100 μM of salbutamol, 3.4 mM of NaNO2, 4 mM of H2O2, and 65 nM of LPO is used. In the MPO system, 50 μM of salbutamol, 5.0 mM of NaNO2, 5 mM of H2O2, and 0.2 U/mL of MPO is used. In the EPO system, 50 μM of salbutamol, 5 mM of NaNO2, 2 mM of H2O2, and 0.075 U/mL of EPO is used. All reactions were carried out in pH 7.0 phosphate buffer containing DMSO (5% v/v). The term “nitrophenols” includes nitrosalbutamol (N-Sal) and salbutamol-derived nitrophenol (N—ArOH).

T1 sequence (P05164 279-745 limits assumed): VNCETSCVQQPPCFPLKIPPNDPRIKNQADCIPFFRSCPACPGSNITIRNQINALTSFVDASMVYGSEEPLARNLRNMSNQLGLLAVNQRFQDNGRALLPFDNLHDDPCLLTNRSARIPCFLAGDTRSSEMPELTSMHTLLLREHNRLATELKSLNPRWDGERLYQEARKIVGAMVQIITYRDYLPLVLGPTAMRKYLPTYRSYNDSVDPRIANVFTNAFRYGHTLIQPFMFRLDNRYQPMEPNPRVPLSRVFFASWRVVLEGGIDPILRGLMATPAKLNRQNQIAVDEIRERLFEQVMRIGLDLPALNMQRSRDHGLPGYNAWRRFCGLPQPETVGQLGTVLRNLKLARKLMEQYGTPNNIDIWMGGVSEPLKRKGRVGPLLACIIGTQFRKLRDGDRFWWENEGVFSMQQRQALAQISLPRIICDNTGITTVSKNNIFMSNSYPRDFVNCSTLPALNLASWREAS
T1 sequence (P05164 165-273 limits assumed): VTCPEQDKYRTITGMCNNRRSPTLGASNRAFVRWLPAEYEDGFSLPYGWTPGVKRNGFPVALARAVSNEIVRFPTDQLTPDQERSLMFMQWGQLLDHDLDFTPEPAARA

Effect on MPO activity (formation of radicals from fenoterol and terbutaline, MPO system) ([1]; inhibitor 1 mM, MPO/H2O2) | Nitrophenols, (%) MPO ([2]; dapsone 100 μM) [%] | Nitrophenols, (%) MPO ([2]; dapsone 250 μM) [%] | Nitrophenols, (%) MPO ([2]; dapsone 500 μM) [%] | Concentration of MNP spin adducts, Fenoterol, +MPO + H2O2, % of control ([1]; fenoterol 0.47 mM, inhibitor 0.86 mM, reagent H2O2 37 μM, pH 8.0) | remaining activity at 860 µM ([1]; fenoterol 0.47 mM, inhibitor 0.86 mM, reagent H2O2 37 μM, pH 8.0, read-out: Concentration of MNP spin adducts, Fenoterol, +MPO + H2O2, % of control) [%] | Concentration of MNP spin adducts, Terbutaline, +MPO + H2O2, % of control ([1]; terbutaline 0.47 mM, inhibitor 0.86 mM, reagent H2O2 37 μM, pH 8.0) | remaining activity at 860 µM ([1]; terbutaline 0.47 mM, inhibitor 0.86 mM, reagent H2O2 37 μM, pH 8.0, read-out: Concentration of MNP spin adducts, Terbutaline, +MPO + H2O2, % of control) [%] | Inhibitory action on nitration of salbutamol by MPO/H2O2/NO2− ([2]; methimazole 25, 50, 100 μM, 0.2 U/mL MPO, 5 mM NaNO2, 2.1 mM H2O2, pH 7.0) | SMILES
only a minimal effect | 66.3 ± 0.6 | 56.0 ± 1.3 | 44.2 ± 3.0 |  |  |  |  |  | Nc1ccc(S(=O)(=O)c2ccc(N)cc2)cc1 [Dapsone, diamino-diphenyl sulfone]
 |  |  |  | inhibitory | 22.4 ± 0.6 | inhibitory | 33.5 ± 3.5 | transitory | Cn1cc[nH]c1=S [Methimazole, 1-methyl-3H-imidazole-2-thione]
